According to patent US12409158B2, “Combination therapy for treating cancer” (GONGWIN BIOPHARM CO., LTD, priority 2022, dated 2025):

Key:
M5 canine melanoma tumor = M5 canine melanoma tumor growth in implanted mice; format: in vivo, BALB/cByJNarl mice; details: cisplatin 2 mg/kg; for Tumor mass: after excision from sacrificed mice, IP three times per week, PTS 100 mg/kg, mean ± SD; for Tumor mass reduction (%): relative to the control, PTS 100 mg/kg IP three times per week
Procedure: Male BALB/cByJNarl mice at six-weeks of age were obtained from National Laboratory Animal Breeding and Research Center, Taipei, Taiwan. Two mice were housed in each cage and provided them with sterile food and water. The mice were maintained under a constant temperature (22±2° C.) and relative humidity (55±5%), with a 12:12 h light:dark cycle. The Institutional Animal Care and Use Committee (IACUC) at the National […] University (IACUC Approval No.110003) reviewed and approved the study protocol, in which procedures were in accordance with the Guidelines for the Care and Use of Laboratory Animals published by the Taiwanese Ministry of Health and Welfare. The M5 canine melanoma cell line was obtained from the School of Veterinary Medicine at National Taiwan University. The cells were cultured in a humidified atmosphere (95% air, 5% CO2) at 37° C. in 90% high-glucose Dulbecc's Modified Eagle Medium supplemented with 5% fetal bovine serum, 50 IU/ml of penicillin, and […] of streptomycin (Gibco Laboratories, Grand Island, NY, USA). The cells were routinely passaged by removing the medium and overlaying the cell monolayer with 0.25% trypsin and 0.1% ethylenediaminetetraacetic acid. The experimental treatments were commenced after the implanted M5 cells had formed a detectable tumor mass, which was assessed on day 7 after implantation. Briefly, the mice were anesthetized via intraperitoneal injection of Zoletil (Virbac Taiwan, Taipei, Taiwan), and then subcutaneously injected 100 μl of cell suspension containing 10^7 viable M5 cells into a posterior leg. […] All treatments were administered via intraperitoneal injection. The control group received saline daily, while the three treatment groups received their corresponding treatments three times per week. The cisplatin group received 2 mg/kg cisplatin (Sigma; St. Louis, MO, USA). The PTS group was administered with 100 mg/kg PTS (Gongwin Biopharm Holding, Taipei, Taiwan). The cisplatin+PTS group received 100 mg/kg PTS and 2 mg/kg cisplatin. The dosage of cisplatin was selected such that this drug affects apoptosis, invasion, metastasis, angiogenesis, and the growth signal mechanisms in canine melanoma implanted in mice. […] The growth of the tumors was assessed every seven days by measuring their largest and smallest diameters, and calculated their volume according to the following formula: […] The mice were observed daily for clinical signs, weighed them every three days, and at one month after tumor-cell implantation euthanized them with an overdose of anesthetic combined with carbon dioxide. […] Protein expression was assessed via IHC with the […] mouse/rabbit polymer detection system produced by BioTnA (Kaohsiung, Taiwan). […]

phosphorylated ERK = assay: Western blot of phosphorylated ERK in M5 tumors; format: in vivo, BALB/c nude mice; details: vs control group
Procedure: The mice were observed daily for clinical signs, weighed them every three days, and at one month after tumor-cell implantation euthanized them with an overdose of anesthetic combined with carbon dioxide. Immediately before sacrificing the mice, the blood was collected from them under anesthesia for hematological assessment. After euthanizing the mice, the tumors were excised immediately. The tumor specimens were divided into two groups. One group was treated with 10% formalin and embedded the specimens in paraffin. These specimens were investigated by hematoxylin and eosin staining; terminal deoxyribonucleotidyl transferase (TdT)-mediated biotin-16-dUTP nick-end labeling (TUNEL assay; APO-BrdU TUNEL Assay Kit, BD Pharmingen, San Diego, CA, USA); and IHC for IL-1β, TNF-α, TGF-β, and CD44, using primary antibodies against these factors (Merck, Billerica, MA, USA). Protein expression was assessed via IHC with the […] mouse/rabbit polymer detection system produced by BioTnA (Kaohsiung, Taiwan). A high-resolution digital microscope (Moticam 2300, Motic Instruments, Richmond, Canada) equipped with Motic Images Plus (version 2.0) was used to capture and analyze the images. […] Protein expression and phosphorylation were quantified with ImageJ (National Institutes of Health, Bethesda, […], USA).

CD44 = assay: IHC analysis of CD44 in M5 tumors; format: in vivo, BALB/c nude mice; details: relative to the control group
Procedure: The mice were observed daily for clinical signs, weighed them every three days, and at one month after tumor-cell implantation euthanized them with an overdose of anesthetic combined with carbon dioxide. Immediately before sacrificing the mice, the blood was collected from them under anesthesia for hematological assessment. After euthanizing the mice, the tumors were excised immediately. The tumor specimens were divided into two groups. One group was treated with 10% formalin and embedded the specimens in paraffin. These specimens were investigated by hematoxylin and eosin staining; terminal deoxyribonucleotidyl transferase (TdT)-mediated biotin-16-dUTP nick-end labeling (TUNEL assay; APO-BrdU TUNEL Assay Kit, BD Pharmingen, San Diego, CA, USA); and IHC for IL-1β, TNF-α, TGF-β, and CD44, using primary antibodies against these factors (Merck, Billerica, MA, USA). Protein expression was assessed via IHC with the […] mouse/rabbit polymer detection system produced by BioTnA (Kaohsiung, Taiwan). A high-resolution digital microscope (Moticam 2300, Motic Instruments, Richmond, Canada) equipped with Motic Images Plus (version 2.0) was used to capture and analyze the images. The other groups of tumor specimens were first minced coarsely and homogenized, and then stored in a freezer at -80° C.

| Structure (SMILES) | Tumor mass (M5 canine melanoma tumor) [g] | Tumor mass reduction (%) (M5 canine melanoma tumor) | phosphorylated ERK expression (phosphorylated ERK) | CD44 expression reduction (CD44) |
| --- | --- | --- | --- | --- |
| Cc1ccc(S(N)(=O)=O)cc1 [PTS, p-Toluenesulfonamide] | 1.48 ± 0.33 | 44.2 | significantly higher | ~34.4% |
| N.N.[Cl][Pt][Cl] [Cisplatin, cisplatin, reference compound] | 1.37 ± 0.25 | 48.7 | significantly higher | about 40.9% |
